We go through 21 compounds from PMC2654417 (Combinatorial chemistry & high throughput screening, 2008).

In experiment [1] the target is T1, glucocorticoid receptor (GR) (Homo sapiens, UniProt P04150).
T1 sequence (P04150 1-777): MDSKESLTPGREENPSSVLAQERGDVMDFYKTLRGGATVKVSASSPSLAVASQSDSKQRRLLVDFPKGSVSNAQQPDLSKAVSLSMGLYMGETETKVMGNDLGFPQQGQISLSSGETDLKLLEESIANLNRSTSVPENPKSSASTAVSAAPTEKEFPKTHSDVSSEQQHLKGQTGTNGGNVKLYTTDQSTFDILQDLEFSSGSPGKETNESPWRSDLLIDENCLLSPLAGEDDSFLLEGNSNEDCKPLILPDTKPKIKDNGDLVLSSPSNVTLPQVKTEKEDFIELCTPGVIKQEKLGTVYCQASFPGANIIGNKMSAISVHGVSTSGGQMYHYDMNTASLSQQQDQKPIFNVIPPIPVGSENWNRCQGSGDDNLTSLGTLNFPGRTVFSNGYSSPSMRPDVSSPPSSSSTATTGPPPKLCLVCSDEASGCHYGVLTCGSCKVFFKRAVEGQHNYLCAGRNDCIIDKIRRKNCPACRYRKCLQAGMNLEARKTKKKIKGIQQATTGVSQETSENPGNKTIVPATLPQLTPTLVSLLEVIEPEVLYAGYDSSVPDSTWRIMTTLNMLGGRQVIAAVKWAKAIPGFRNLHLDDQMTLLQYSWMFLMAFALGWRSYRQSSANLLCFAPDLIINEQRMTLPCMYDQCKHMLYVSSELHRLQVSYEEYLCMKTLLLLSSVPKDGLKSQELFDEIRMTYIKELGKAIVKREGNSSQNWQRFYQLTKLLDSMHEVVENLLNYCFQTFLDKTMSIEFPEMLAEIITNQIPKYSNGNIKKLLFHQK
Kind of experiment: GR-EFC nuclear translocation assay. In kind it is cell-based. The note with it: for qHTS Hill Slope: Hill slope of the qHTS curve fit; for qHTS Max Activity: maximal activity of the qHTS curve, inactive threshold […] (3σ). Background: In qHTS, concentration-response curves come from the screen itself.

Experiment [2] deals with T1, glucocorticoid receptor (GR). The note with it: GR-rich cell extract; cited from earlier work.
Where [3] appears, read: read-out: qEC50, qHTS curve fit, class 4 values are fit defaults.

Structures are written as SMILES. pEC50: −log10 of the molar value. Like-named read-outs stand apart in the source and are kept apart here. Some results are limits rather than exact numbers.

With `C[C@]12C[C@H](O)[C@H]3[C@@H](CCC4=CC(=O)CC[C@@]43C)[C@@H]1CC[C@@H]2C(=O)CO` [Corticosterone, reference compound], the pEC50 in experiment [1] was 7.44. Besides, the “IC50/Kd [3H]dex binding assay” value in experiment [2] is 0.048 [39] μM.

Consider `CCC(=O)O[C@]1(C(=O)SCF)[C@H](C)C[C@H]2[C@@H]3C[C@H](F)C4=CC(=O)C=C[C@]4(C)[C@@]3(F)[C@@H](O)C[C@@]21C` [NCGC00016943-01], for which, in experiment [1], the “qHTS Hill Slope” value turned out to be 1.50 and the “qHTS Max Activity” value is 115.3.

For the compound `CC1(C)O[C@@H]2C[C@H]3[C@@H]4C[C@H](F)C5=CC(=O)C=C[C@]5(C)[C@H]4[C@@H](O)C[C@]3(C)[C@]2(C(=O)CO)O1` [NCGC00016983-01], in experiment [1], the “qHTS Hill Slope” value is 0.57 and the “qHTS Max Activity” value was determined as 97.1. Further, the “log qEC50” value in experiment [1] (log10 of qEC50 in M, printed as negative values, class 4 values are fit defaults) was −8.315. Moreover, the pEC50 in experiment [1] (setting [3]) is 8.31.

Regarding `CC(C)CCC(=O)O.C[C@@]12CCC(=O)C[C@@H]1CC(=O)[C@H]1[C@H]3CCC[C@]3(C)C(=O)C[C@@H]12` [NCGC00017016-01], the “qHTS Curve Class” value in experiment [1] was 4 (inactive, where activity was below 28.6% (3σ for the present assay)). Also, the pEC50 in experiment [1] (read-out: qEC50) was < 5.05.

On to `CC(=O)O[C@H]1C[C@@]2(C)[C@@H](C[C@@H](O)[C@H]3[C@@]4(C)CC[C@@H](O)[C@@H](C)[C@@H]4CC[C@@]32C)/C1=C(\CCC=C(C)C)C(=O)[O-].[Na+]` [NCGC00017030-01], for which the “qHTS Curve Class” value in experiment [1] is 4 (inactive, where activity was below 28.6% (3σ for the present assay)). Besides, the pEC50 in experiment [1] (read-out: qEC50) is < 5.05.

As to `CC(=O)O[C@H]1CC[C@@]2(C)[C@@H](CC[C@@]3(C)[C@H]2C(=O)C=C2[C@H]4C[C@](C)(C(=O)OCCN5CCCCC5)CC[C@]4(C)CC[C@@]23C)C1(C)C` [NCGC00017165-01], in experiment [1], the “qHTS Curve Class” value is 4 (inactive, where activity was below 28.6% (3σ for the present assay)). Further, the pEC50 in experiment [1] (read-out: qEC50) is < 5.05.

For the compound `C[C@H]1CC[C@]2(NC1)O[C@@H]1C[C@@H]3[C@@H]4CC=C5C[C@H](O)CC[C@@]5(C)[C@H]4CC[C@@]3(C)[C@H]1[C@@H]2C` [NCGC00017170-01], in experiment [1] (setting [3]), the pEC50 is < 5.05.

Turning to `CC1(C)CC[C@]2(C(=O)O)CC[C@]3(C)C(=CC[C@@H]4[C@@]5(C)CC[C@H](O)C(C)(C)[C@@H]5CC[C@@]43C)[C@@H]2C1` [NCGC00017222-01], the “qHTS Curve Class” value in experiment [1] is 4 (inactive, where activity was below 28.6% (3σ for the present assay)). Moreover, the pEC50 in experiment [1] (read-out: qEC50) is < 5.05.

Consider `C[C@H]1[C@H](C)CC[C@@]2(C(=O)O)CC[C@]3(C)C(=CC[C@@H]4[C@@]5(C)CC[C@H](O)C(C)(C)[C@@H]5CC[C@@]43C)[C@@H]12` [NCGC00017223-01], for which the “qHTS Curve Class” value in experiment [1] was 4 (inactive, where activity was below 28.6% (3σ for the present assay)). In addition, the pEC50 in experiment [1] (read-out: qEC50) was < 5.05.

As to `CC1(C)[C@@H](O)CC[C@@]2(C)[C@H]1CC[C@]1(C)[C@H]2C(=O)C=C2[C@@H]3C[C@@](C)(C(=O)O)CC[C@]3(C)CC[C@@]21C` [NCGC00017244-01], in experiment [1], the “qHTS Curve Class” value is 4 (inactive, where activity was below 28.6% (3σ for the present assay)). The pEC50 in experiment [1] (read-out: qEC50) is < 5.05.

Consider `CC(=O)O[C@@H]1CC[C@]2(C)[C@H]3CC[C@]4(C)[C@H](C[C@H]5CCCC[C@@]54C(C)=O)[C@@H]3CC(=O)[C@@]2(O)C1` [NCGC00017282-01], for which the pEC50 in experiment [1] (setting [3]) is < 5.05.

As to `COc1cc2c(cc1OC)-c1c(OC)c(OC)c(CO)c3c1[C@H](C2)N(C)CC3` [NCGC00017307-01], the “qHTS Curve Class” value in experiment [1] was 4 (inactive, where activity was below 28.6% (3σ for the present assay)). The pEC50 in experiment [1] (read-out: qEC50) was < 5.05.

`C[C@@]12CC[C@H](O)C[C@@H]1CC[C@H]1[C@H]2C[C@@H](O)[C@]2(C)[C@@H](C3=CC(=O)OC3)CC[C@@]12O` [NCGC00017309-01]: the pEC50 in experiment [1] (setting [3]) was < 5.05.

As for `C[C@H]1[C@H](C)CC[C@@]2(C(=O)O)CC[C@]3(C)C(=CC[C@H]4[C@@]5(C)C[C@@H](O)[C@H](O)[C@@](C)(CO)[C@@H]5CC[C@@]43C)[C@@H]12` [NCGC00017359-01], the “qHTS Curve Class” value in experiment [1] was 4 (inactive, where activity was below 28.6% (3σ for the present assay)). In experiment [1] (read-out: qEC50), the pEC50 is < 5.05.

Regarding `C[C@]12CC[C@H]3c4ccc(OC[C@H]5CO5)cc4CC[C@H]3[C@H]1CC[C@@H]2O` [NCGC00017797-01], the pEC50 in experiment [1] (setting [3]) was < 5.05.

For the compound `C#C[C@]1(O)CC[C@H]2[C@H]3CCC4=Cc5oncc5C[C@]4(C)[C@@H]3CC[C@]21C` [NCGC00024732-01], in experiment [1], the “qHTS Curve Class” value was 4 (inactive, where activity was below 28.6% (3σ for the present assay)). The pEC50 in experiment [1] (read-out: qEC50) is < 5.05.

On to `CC(=O)O[C@H]1C[C@H]2CC[C@@H]3[C@H]4C[C@@H]([N+]5(C)CCCCC5)[C@@H](OC(C)=O)[C@]4(C)CC[C@@H]3[C@@]2(C)C[C@@H]1[N+]1(C)CCCCC1` [NCGC00024736-01], for which, in experiment [1] (setting [3]), the pEC50 is < 5.05.

On to `C[C@@]12CC[C@@H]3c4ccc(O)cc4C[C@H](CCCCCCCCC[S+]([O-])CCCC(F)(F)C(F)(F)F)[C@H]3[C@@H]1CC[C@@H]2O` (some centres unmarked) [NCGC00024964-01], for which the pEC50 in experiment [1] (setting [3]) was < 5.05.

On to `COc1ccc2c(c1)CC[C@H]1[C@@H]2CC[C@@]2(C)[C@@H](NCCCCCCN3C(=O)C=CC3=O)CC[C@@H]12` [NCGC00025091-01], for which the pEC50 in experiment [1] (setting [3]) was < 5.05.

`CCC[C@@H]1CC2=CC(=O)CC[C@]2(C)[C@@H]2CC[C@@]3(C)[C@H](CC[C@]3(O)CCC(=O)O)[C@H]12` [NCGC00025253-01]: the pEC50 in experiment [1] (setting [3]) was < 5.05.

Turning to `COc1cc2c(cc1O)CCC1C2CC[C@@]2(C)C1CC[C@@H]2O` (some centres unmarked) [NCGC00025300-01], in experiment [1] (setting [3]), the pEC50 was < 5.05.
